What follows are compounds tested against T1, Glucokinase (Homo sapiens, UniProt P35557) (assay: Glucokinase activation assay (NADPH absorbance at 340 nm)). Conditions: glucokinase (ProteinOne Inc.), 5 mM D(+)-glucose, 24° C., 90 minutes.
T1 construct: purchased ProteinOne Inc
T1 sequence (P35557 1-465): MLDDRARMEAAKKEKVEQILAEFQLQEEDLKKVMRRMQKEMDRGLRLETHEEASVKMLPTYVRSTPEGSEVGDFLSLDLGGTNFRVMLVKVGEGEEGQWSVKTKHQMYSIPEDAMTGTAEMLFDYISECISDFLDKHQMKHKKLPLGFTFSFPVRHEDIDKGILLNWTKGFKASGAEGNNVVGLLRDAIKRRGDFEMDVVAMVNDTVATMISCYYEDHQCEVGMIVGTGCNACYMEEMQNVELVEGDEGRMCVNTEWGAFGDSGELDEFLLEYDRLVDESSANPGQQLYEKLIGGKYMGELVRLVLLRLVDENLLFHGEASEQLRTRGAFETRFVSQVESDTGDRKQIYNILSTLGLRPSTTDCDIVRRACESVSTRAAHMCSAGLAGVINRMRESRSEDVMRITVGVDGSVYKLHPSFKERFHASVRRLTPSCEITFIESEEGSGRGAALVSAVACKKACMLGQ
Assay type: biochemical
Method: The amounts of glucokinase activation were determined by measuring the levels of NADPH (the final metabolite of glucose through glucokinase-mediated phospho-rylation) and then calculating to glucokinase activities.
Glucokinase (ProteinOne Inc.) was added, in the concentration of 100 ng/uL, to a enzyme-reaction medium (25 mM HEPES pH 7, 25 mM KCL, 1 mM MgCl, 5 mM D(+)-glucose, 1 mM ATP, 1 mM NADP, 1 mM DTT, and 2.5 u/mL G6PDH). Each compound in predetermined concentrations was added to the enzyme-reaction medium and then absorbance (First Absorbance) was measured at 340 nm of wavelength. After measuring the first absorbance, each reaction mixture was incubated at 24° C. for 90 minutes and then absorbance (Second Absorbance) was re-measured at 340 nm of wavelength. Using changes between First Absorbance and Second Absorbance, glucokinase activity was calculated. In the calculation, a maximum activity of the test compound (Emax), in comparison to the control group (no treatment of compound) was determined and then EC50 was calculated using the software for statistical analysis “Prism”, based on the activity-changes according to concentrations of the test compounds.
The amounts of glucokinase activation of the compounds of Comparative Examples 1 and 2 were determined, in accordance with the same procedures as in Test Example 1.

CCC(COC)Oc1cc(/C=C/c2ccc(F)cc2)cc(C(=O)Nc2nccs2)c1 (stereo not drawn) [Example 148, 3-[trans-2-(4-fluorophenyl)vinyl]-5-(1-methoxymethyl-propoxy)-N-(thiazol-2-yl)-benzamide] and “3-[2-(2-methoxyphenyl)ethyl]-5-(2-methoxy-(1S)-methyl-ethoxy)-N-(pyrazin-2-yl)-benzamide [Example 106]” are within 1.5-fold of each other in EC50: 417 nM for the first, 304 nM for the second.

Going from “3-[trans-2-(4-fluorophenyl)vinyl]-5-(2-methoxy-(1S)-methyl-ethoxy)-N-(pyrazin-2-yl)-benzamide [Example 52]” to COC[C@H](C)Oc1cc(/C=C/c2cccc([N+](=O)[O-])c2)cc(C(=O)Nc2ccn(C)n2)c1 [Example 38, 3-[trans-2-(3-nitrophenyl)vinyl]-5-(2-methoxy-(1S)-methyl-ethoxy)-N-(1-methyl-H-pyrazol-3-yl)-benzamide], the EC50 falls from 420 nM to 239 nM (1.8-fold).

Compared with “3-[trans-2-(3-fluorophenyl)vinyl]-5-(2-methoxy-(1S)-methyl-ethoxy)-N-(thiazol-2-yl)-benzamide [Example 7]”, CCOC(=O)Nc1ccccc1CCc1cc(O[C@@H](C)COC)cc(C(=O)Nc2nccs2)c1 [Example 117, 3-{2-[2-(carbamic acid ethyl ester)phenyl]ethyl}-5-(2-methoxy-(1S)-methyl-ethoxy)-N-(thiazol-2-yl)-benzamide] is 4.7-fold higher in EC50: 48.4 nM for the first, 229 nM for the second. The first is the more potent here.

Compared with “3-[2-(2,3-dimethoxyphenyl)ethyl]-5-(2-methoxy-(1S)-methyl-ethoxy)-N-(thiazol-2-yl)-benzamide [Example 90]”, “3-[2-(2,4-difluorophenyl)ethyl]-5-(2-methoxy-(1S)-methyl-ethoxy)-N-(thiazol-2-yl)-benzamide [Example 85]” is 34-fold lower in EC50: 322 nM for the first, 9.5 nM for the second. The second is the more potent here.

Going from “3-[trans-2-(2-chlorophenyl)vinyl]-5-(2-methoxy-(1S)-methyl-ethoxy)-N-(pyrazin-2-yl)-benzamide [Example 53]” to COC[C@H](C)Oc1cc(/C=C/c2ccc(F)cc2)cc(C(=O)Nc2ccc(C(=O)O)cn2)c1 [Example 77, 3-[trans-2-(4-fluorophenyl)vinyl]-5-(2-methoxy-(1S)-methyl-ethoxy)-N-(nicotinic acid-6-yl)-benzamide], the EC50 falls from 503 nM to 120 nM (4.2-fold).

Compared with “3-[trans-2-(4-methoxyphenyl)vinyl]-5-(2-methoxy-(1S)-methyl-ethoxy)-N-(1-methyl-1H-pyrazol-3-yl)-benzamide [Example 41]”, COC[C@H](C)Oc1cc(/C=C/c2c(F)cccc2F)cc(C(=O)Nc2ccn(C)n2)c1 (stereo in doubt) [Example 37, 3-[trans-2-(2,6-difluorophenyl)vinyl]-5-(2-methoxy-(1S)-methyl-ethoxy)-N-(1-methyl-1H-pyrazol-3-yl)-benzamide] is 1.5-fold lower in EC50: 245 nM for the first, 161 nM for the second. The second is the more potent here.

First: 3-{2-[4-(2-(thiophen-2-yl)acetylamino)phenyl]ethyl}-5-(2-methoxy-(1S)-methyl-ethoxy)-N-(thiazol-2-yl)-benzamide [Example 143]
Second: COC[C@H](C)Oc1cc(/C=C/c2c(F)cccc2F)cc(C(=O)Nc2ccc(C(=O)O)cn2)c1 [Example 81, 3-[trans-2-(2,6-difluorophenyl)vinyl]-5-(2-methoxy-(1S)-methyl-ethoxy)-N-(nicotinic acid-6-yl)-benzamide]
The EC50 of the first is 3.2-fold higher: 284 nM for the first, 89.8 nM for the second. The second is the more potent here.

Compared with CC(C)Oc1cc(/C=C/c2ccccn2)cc(C(=O)Nc2ccc(C(=O)O)cn2)c1 [Comparative Example 1, reference compound], “3-[trans-2-(2,5-difluorophenyl)vinyl]-5-(2-methoxy-(1S)-methyl-ethoxy)-N-(5-fluorothiazol-2-yl)-benzamide [Example 26]” is 53-fold lower in EC50: 2450 nM for the first, 46.5 nM for the second. The second is the more potent here.

“3-[trans-2-(2,5-difluorophenyl)vinyl]-5-(2-methoxy-(1S)-methyl-ethoxy)-N-(1-methyl-1H-pyrazol-3-yl)-benzamide [Example 36]” and “3-[trans-2-(2-nitrophenyl)vinyl]-5-(2-methoxy-(1S)-methyl-ethoxy)-N-(1-methyl-1H-pyrazol-3-yl)-benzamide [Example 32]” are within 1.5-fold of each other in EC50: 200 nM for the first, 284 nM for the second.

First: 3-[2-(2,4-dimethoxyphenyl)ethyl]-5-(2-methoxy-(1S)-methyl-ethoxy)-N-(pyrazin-2-yl)-benzamide [Example 105]
Second: 3-[2-(4-aminophenyl)ethyl]-5-(2-methoxy-(1S)-methyl-ethoxy)-N-(thiazol-2-yl)-benzamide [Example 92]
The EC50 of the first is 2.6-fold higher: 298 nM for the first, 113 nM for the second.

Compared with CC(C)COc1cc(/C=C/c2ccccc2[N+](=O)[O-])cc(C(=O)Nc2nccs2)c1 [Example 3, 3-[trans-2-(2-nitrophenyl)vinyl]-5-isobutoxy-N-(thiazol-2-yl)-benzamide], COC[C@H](C)Oc1cc(/C=C/c2ccccc2[N+](=O)[O-])cc(C(=O)Nc2ccc(C(=O)O)cn2)c1 [Example 74, 3-[trans-2-(2-nitrophenyl)vinyl]-5-(2-methoxy-(1S)-methyl-ethoxy)-N-(nicotinic acid-6-yl)-benzamide] is 3.3-fold higher in EC50: 90.2 nM for the first, 296 nM for the second.

First: CCOC(=O)CC(=O)Nc1cccc(CCc2cc(O[C@@H](C)COC)cc(C(=O)Nc3nccs3)c2)c1 [Example 121, 3-{2-[3-(malonamic acid ethyl ester)phenyl]ethyl}-5-(2-methoxy-(1S)-methyl-ethoxy)-N-(thiazol-2-yl)-benzamide]
Second: COC[C@H](C)Oc1cc(CCc2ccccc2NC(=O)Cc2cccs2)cc(C(=O)Nc2nccs2)c1 [Example 114]
The EC50 of the first is 1.6-fold lower: 170 nM for the first, 275 nM for the second.

Compared with COC[C@H](C)Oc1cc(CCc2ccc(NC(=O)c3ccncc3)cc2)cc(C(=O)Nc2nccs2)c1 [Example 142, 3-[2-(4-isonicotinamidephenyl)ethyl]-5-(2-methoxy-(1S)-methyl-ethoxy)-N-(thiazol-2-yl)-benzamide], COC[C@H](C)Oc1cc(/C=C/c2ccc(F)cc2F)cc(C(=O)Nc2ccc(C(=O)OC)cn2)c1 [Example 67, 3-[trans-2-(2,4-difluorophenyl)vinyl]-5-(2-methoxy-(1S)-methyl-ethoxy)-N-(nicotinic acid-3-methyl ester-6-yl)-benzamide] is 1.5-fold lower in EC50: 357 nM for the first, 231 nM for the second. The second is the more potent here.

“3-[trans-2-(3-chlorophenyl)vinyl]-5-(2-methoxy-(1S)-methyl-ethoxy)-N-(pyrazin-2-yl)-benzamide [Example 54]” and “3-[trans-2-(2-methoxyphenyl)vinyl]-5-(2-methoxy-(1S)-methyl-ethoxy)-N-(pyrazin-2-yl)-benzamide [Example 48]” are within 1.5-fold of each other in EC50: 382 nM for the first, 281 nM for the second.

First: 3-{2-[4-(3-ethyl-thio-ureido)phenyl]ethyl}-5-(2-methoxy-(1S)-methyl-ethoxy)-N-(thiazol-2-yl)-benzamide [Example 146]
Second: CCOC(=O)CC(=O)Nc1ccc(CCc2cc(O[C@@H](C)COC)cc(C(=O)Nc3nccs3)c2)cc1 [Example 135, 3-{2-[4-(malonamic acid ethyl ester)phenyl]ethyl}-5-(2-methoxy-(1S)-methyl-ethoxy)-N-(thiazol-2-yl)-benzamide]
The EC50 of the first is 2.2-fold higher: 454 nM for the first, 204 nM for the second.

“3-[2-(3-benzoylaminophenyl)ethyl]-5-(2-methoxy-(1S)-methyl-ethoxy)-N-(thiazol-2-yl)-benzamide [Example 124]” and COC[C@H](C)Oc1cc(/C=C/c2ccc(F)cc2)cc(C(=O)Nc2ccc(C(=O)OC)cn2)c1 [Example 65, 3-[trans-2-(4-fluorophenyl)vinyl]-5-(2-methoxy-(1S)-methyl-ethoxy)-N-(nicotinic acid-3-methyl ester-6-yl)-benzamide] are within 1.5-fold of each other in EC50: 281 nM for the first, 292 nM for the second.

Going from COC[C@H](C)Oc1cc(/C=C/c2ccccc2F)cc(C(=O)Nc2ccc(C(=O)O)cn2)c1 [Example 76, 3-[trans-2-(2-fluorophenyl)vinyl]-5-(2-methoxy-(1S)-methyl-ethoxy)-N-(nicotinic acid-6-yl)-benzamide] to “3-[2-(2-methoxyphenyl)ethyl]-5-(2-methoxy-(1S)-methyl-ethoxy)-N-(thiazol-2-yl)-benzamide [Example 89]”, the EC50 falls from 55.8 nM to 28.4 nM (2-fold). The second is the more potent here.

First: 3-{2-[3-(3-ethyl-thio-ureido)phenyl]ethyl}-5-(2-methoxy-(1S)-methyl-ethoxy)-N-(thiazol-2-yl)-benzamide [Example 131]
Second: 3-[trans-2-(2-fluorophenyl)vinyl]-5-(2-methoxy-(1S)-methyl-ethoxy)-N-(pyrazin-2-yl)-benzamide [Example 51]
The EC50 of the first is 2.1-fold higher: 491 nM for the first, 238 nM for the second. The second is the more potent here.

With COC[C@H](C)Oc1cc(CCc2cccc(N)c2)cc(C(=O)Nc2ccn(C)n2)c1 [Example 97, 3-[2-(3-aminophenyl)ethyl]-5-(2-methoxy-(1S)-methyl-ethoxy)-N-(1-methyl-1-pyrazol-3-yl)-benzamide] the EC50 was 415 nM.
